From patent US8802597B2, “Herbicidal pyrimidines” (E I du Pont de Nemours and Company, priority 2003, dated 2014)
Where two headings read alike, the source gives them in different places.

What was measured:
Assay type in all cases: in vivo
wild oat (Avena fatua) = experiment: Test B postemergence; details: Avena fatua, post-emergence
In short: (§1)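 Compounds in non-phytotoxic solvent with surfactant applied preemergence to planted seeds or postemergence to plants 2 to 18 cm tall (1- to 4-leaf stage). Greenhouse 13 to 15 days, then visual rating against controls on a 0 to 100 scale (100 = complete control).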

[1] = system: blackgrass (Alopecurus myosuroides); experiment: Test B postemergence; details: Alopecurus myosuroides, post-emergence
In short: as §1

[2] = system: cocklebur (Xanthium strumarium); experiment: Test B pre/postemergence; details: Xanthium strumarium; for pest or weed control at 125 g/ha: 125 g ai/ha; for pest or weed control at 500 g/ha: 500 g ai/ha
In short: as §1

[3] = system: crabgrass (Digitaria sanguinalis); experiment: Test B pre/postemergence; details: Digitaria sanguinalis; for pest or weed control at 125 g/ha: 125 g ai/ha; for pest or weed control at 500 g/ha: 500 g ai/ha
In short: as §1

[4] = system: barnyardgrass (Echinochloa crus-galli); experiment: Test B pre/postemergence; details: Echinochloa crus-galli; for pest or weed control at 125 g/ha: 125 g ai/ha; for pest or weed control at 500 g/ha: 500 g ai/ha
In short: as §1

[5] = system: Surinam grass (Brachiaria decumbens); experiment: Test B pre/postemergence; details: Urochloa decumbens; for pest or weed control at 125 g/ha: 125 g ai/ha; for pest or weed control at 500 g/ha: 500 g ai/ha
In short: as §1

[6] = system: lambsquarters (Chenopodium album); experiment: Test B pre/postemergence; details: Chenopodium album; for pest or weed control at 125 g/ha: 125 g ai/ha; for pest or weed control at 500 g/ha: 500 g ai/ha
In short: as §1

[7] = system: giant foxtail (Setaria faberii); experiment: Test B pre/postemergence; details: Setaria faberi; for pest or weed control at 125 g/ha: 125 g ai/ha; for pest or weed control at 500 g/ha: 500 g ai/ha
In short: as §1

[8] = system: pigweed (Amaranthus retroflexus); experiment: Test B pre/postemergence; details: Amaranthus retroflexus; for pest or weed control at 125 g/ha: 125 g ai/ha; for pest or weed control at 500 g/ha: 500 g ai/ha
In short: as §1

[9] = system: morningglory (Ipomoea coccinea); experiment: Test B pre/postemergence; details: Ipomoea; for pest or weed control at 125 g/ha: 125 g ai/ha; for pest or weed control at 500 g/ha: 500 g ai/ha
In short: as §1

corn (Zea mays) = experiment: Test B pre/postemergence; details: Zea mays
In short: as §1

[10] = system: wheat (Triticum aestivum); experiment: Test B pre/postemergence; details: Triticum aestivum; for plant injury at 125 g/ha: 125 g ai/ha; for plant injury at 500 g/ha: 500 g ai/ha
In short: as §1

[11] = system: velvetleaf (Abutilon theophrasti); experiment: Test B pre/postemergence; details: Abutilon theophrasti; for pest or weed control at 125 g/ha: 125 g ai/ha; for pest or weed control at 500 g/ha: 500 g ai/ha
In short: as §1

rice (Oryza sativa) = experiment: Test B flooded paddy test; details: Oryza sativa, Flood, 1000 g ai/ha; scale 0 to 100; read-out: Plant response rating, Rice
In short: (§2)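 Plants were grown to the 2-leaf stage before treatment, then kept in a greenhouse for 13 to 15 days. Injury was rated visually against untreated controls on a 0 to 100 scale, where 0 is no effect and 100 is complete control.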

[12] = system: barnyardgrass (Echinochloa crus-galli); experiment: Test B flooded paddy test; details: Echinochloa crus-galli, Flood, 1000 g ai/ha; scale 0 (no effect) to 100 (complete control); read-out: Plant response rating, Barnyardgrass
In short: as §2

[13] = system: duck salad (Heteranthera limosa); experiment: Test B flooded paddy test; details: Heteranthera limosa, Flood, 1000 g ai/ha; scale 0 to 100; read-out: Plant response rating, Ducksalad
In short: as §2

[14] = system: umbrella sedge (Cyperus difformis); experiment: Test B flooded paddy test; details: Cyperus difformis, Flood, 1000 g ai/ha; scale 0 to 100; read-out: Plant response rating, Sedge, Umbrella
In short: as §2

[15] = pre-emergence, Preemergence, scale 0 to 100 (0 no effect, 100 complete control), read-out: Plant response rating, Wheat

CCOC(=O)c1nc(C(C)(C)C)nc(N)c1Br [Compound 36]
pest or weed control at 125 g/ha (wild oat (Avena fatua); 125 g ai/ha, scale 0 to 100 (0 no effect, 100 complete control), read-out: Oat, Wild plant response rating): 0% | pest or weed control at 500 g/ha (wild oat (Avena fatua); 500 g ai/ha, scale 0 to 100, read-out: Plant response rating, Oat, Wild): 40% | pest or weed control at 125 g/ha ([1]; 125 g ai/ha, scale 0 to 100 (0 no effect, 100 complete control), read-out: Blackgrass plant response rating): 0% | pest or weed control at 500 g/ha ([1]; 500 g ai/ha, scale 0 to 100, read-out: Plant response rating, Blackgrass): 40% | pest or weed control at 125 g/ha ([2]; post-emergence, Postemergence, scale 0 to 100 (0 no effect, 100 complete control), read-out: Cocklebur plant response rating): 20% | pest or weed control at 500 g/ha ([2]; post-emergence, Postemergence, scale 0 to 100, read-out: Plant response rating, Cocklebur): 70% | pest or weed control at 125 g/ha ([2]; pre-emergence, Preemergence, scale 0 to 100 (0 no effect, 100 complete control), read-out: Plant response rating, Cocklebur): 10% | pest or weed control at 500 g/ha ([2]; pre-emergence, Preemergence, scale 0 to 100 (0 no effect, 100 complete control), read-out: Cocklebur plant response rating): 60% | pest or weed control at 125 g/ha ([3]; post-emergence, Postemergence, scale 0 to 100 (0 no effect, 100 complete control), read-out: Crabgrass plant response rating): 0% | pest or weed control at 500 g/ha ([3]; post-emergence, Postemergence, scale 0 to 100, read-out: Plant response rating, Crabgrass): 0% | pest or weed control at 125 g/ha ([3]; pre-emergence, Preemergence, scale 0 to 100 (0 no effect, 100 complete control), read-out: Plant response rating, Crabgrass): 0% | pest or weed control at 500 g/ha ([3]; pre-emergence, Preemergence, scale 0 to 100 (0 no effect, 100 complete control), read-out: Crabgrass plant response rating): 0% | pest or weed control at 125 g/ha ([4]; post-emergence, Postemergence, scale 0 to 100 (0 no effect, 100 complete control), read-out: Barnyardgrass plant response rating): 0% | pest or weed control at 500 g/ha ([4]; post-emergence, Postemergence, scale 0 to 100, read-out: Plant response rating, Barnyardgrass): 0% | pest or weed control at 125 g/ha ([4]; pre-emergence, Preemergence, scale 0 to 100 (0 no effect, 100 complete control), read-out: Plant response rating, Barnyardgrass): 0% | pest or weed control at 500 g/ha ([4]; pre-emergence, Preemergence, scale 0 to 100 (0 no effect, 100 complete control), read-out: Barnyardgrass plant response rating): 0% | pest or weed control at 125 g/ha ([5]; post-emergence, Postemergence, scale 0 to 100 (0 no effect, 100 complete control), read-out: Surinam Grass plant response rating): 0% | pest or weed control at 500 g/ha ([5]; post-emergence, Postemergence, scale 0 to 100, read-out: Plant response rating, Surinam Grass): 0% | pest or weed control at 125 g/ha ([5]; pre-emergence, Preemergence, scale 0 to 100 (0 no effect, 100 complete control), read-out: Plant response rating, Surinam Grass): 0% | pest or weed control at 500 g/ha ([5]; pre-emergence, Preemergence, scale 0 to 100 (0 no effect, 100 complete control), read-out: Surinam Grass plant response rating): 0% | pest or weed control at 125 g/ha ([6]; post-emergence, Postemergence, scale 0 to 100 (0 no effect, 100 complete control), read-out: Lambsquarters plant response rating): 40% | pest or weed control at 500 g/ha ([6]; post-emergence, Postemergence, scale 0 to 100, read-out: Plant response rating, Lambsquarters): 50% | pest or weed control at 125 g/ha ([6]; pre-emergence, Preemergence, scale 0 to 100 (0 no effect, 100 complete control), read-out: Plant response rating, Lambsquarters): 0% | pest or weed control at 500 g/ha ([6]; pre-emergence, Preemergence, scale 0 to 100 (0 no effect, 100 complete control), read-out: Lambsquarters plant response rating): 40% | pest or weed control at 125 g/ha ([7]; post-emergence, Postemergence, scale 0 to 100 (0 no effect, 100 complete control), read-out: Foxtail, Giant plant response rating): 0% | pest or weed control at 500 g/ha ([7]; post-emergence, Postemergence, scale 0 to 100, read-out: Plant response rating, Foxtail, Giant): 10% | pest or weed control at 125 g/ha ([7]; pre-emergence, Preemergence, scale 0 to 100 (0 no effect, 100 complete control), read-out: Plant response rating, Foxtail, Giant): 0% | pest or weed control at 500 g/ha ([7]; pre-emergence, Preemergence, scale 0 to 100 (0 no effect, 100 complete control), read-out: Foxtail, Giant plant response rating): 0% | pest or weed control at 125 g/ha ([8]; post-emergence, Postemergence, scale 0 to 100 (0 no effect, 100 complete control), read-out: Pigweed plant response rating): 20% | pest or weed control at 500 g/ha ([8]; post-emergence, Postemergence, scale 0 to 100, read-out: Plant response rating, Pigweed): 30% | pest or weed control at 125 g/ha ([8]; pre-emergence, Preemergence, scale 0 to 100 (0 no effect, 100 complete control), read-out: Plant response rating, Pigweed): 0% | pest or weed control at 500 g/ha ([8]; pre-emergence, Preemergence, scale 0 to 100 (0 no effect, 100 complete control), read-out: Pigweed plant response rating): 20% | pest or weed control at 125 g/ha ([9]; post-emergence, Postemergence, scale 0 to 100 (0 no effect, 100 complete control), read-out: Morningglory plant response rating): 10% | pest or weed control at 500 g/ha ([9]; post-emergence, Postemergence, scale 0 to 100, read-out: Plant response rating, Morningglory): 70% | pest or weed control at 125 g/ha ([9]; pre-emergence, Preemergence, scale 0 to 100 (0 no effect, 100 complete control), read-out: Plant response rating, Morningglory): 0% | pest or weed control at 500 g/ha ([9]; pre-emergence, Preemergence, scale 0 to 100 (0 no effect, 100 complete control), read-out: Morningglory plant response rating): 0% | plant injury at 125 g/ha (corn (Zea mays); post-emergence, Postemergence, 125 g ai/ha, scale 0 to 100 (0 no effect, 100 complete control), read-out: Corn plant response rating): 0% | Corn plant response rating (crop injury, 0 = no effect, 100 = complete kill) at 500 g/ha (corn (Zea mays); post-emergence, Postemergence, 500 g ai/ha, scale 0 to 100): 0% | Corn plant response rating (crop injury, 0 = no effect, 100 = complete kill) at 125 g/ha (corn (Zea mays); pre-emergence, Preemergence, 125 g ai/ha, scale 0 to 100 (0 no effect, 100 complete control)): 0% | plant injury at 500 g/ha (corn (Zea mays); pre-emergence, Preemergence, 500 g ai/ha, scale 0 to 100 (0 no effect, 100 complete control), read-out: Corn plant response rating): 0% | plant injury at 125 g/ha ([10]; post-emergence, Postemergence, scale 0 to 100 (0 no effect, 100 complete control), read-out: Wheat plant response rating): 0% | plant injury at 500 g/ha ([10]; post-emergence, Postemergence, scale 0 to 100, read-out: Plant response rating, Wheat): 40% | plant injury at 125 g/ha [10, 15]: 0% | plant injury at 500 g/ha [10, 15]: 0% | pest or weed control at 125 g/ha ([11]; post-emergence, Postemergence, scale 0 to 100 (0 no effect, 100 complete control), read-out: Velvetleaf plant response rating): 20% | pest or weed control at 500 g/ha ([11]; post-emergence, Postemergence, scale 0 to 100, read-out: Plant response rating, Velvetleaf): 40% | pest or weed control at 125 g/ha ([11]; pre-emergence, Preemergence, scale 0 to 100 (0 no effect, 100 complete control), read-out: Plant response rating, Velvetleaf): 10% | pest or weed control at 500 g/ha ([11]; pre-emergence, Preemergence, scale 0 to 100 (0 no effect, 100 complete control), read-out: Velvetleaf plant response rating): 40% | plant injury at 1000 g/ha (rice (Oryza sativa)): 0% | pest or weed control at 1000 g/ha [12]: 0% | pest or weed control at 1000 g/ha [13]: 0% | pest or weed control at 1000 g/ha [14]: 0%
